Reference: patent US8178530B2, “Imidazolopyrazine compounds useful for the treatment of degenerative and inflammatory diseases” (Janssen Pharmaceutica NV, priority 2006, dated 2012)

Legend:
[1] = molecular target: T1, MAPKAPK5 (Homo sapiens, UniProt Q8IW41); test: MAPKAP-K5 assay (FlashPlate, 33P-ATP); assay type: biochemical; conditions: 0.6 μM ATP, 30 minutes at room temperature
T1 construct: 1 mU MAPKAP-K5
T1 sequence (Q8IW41 1-473): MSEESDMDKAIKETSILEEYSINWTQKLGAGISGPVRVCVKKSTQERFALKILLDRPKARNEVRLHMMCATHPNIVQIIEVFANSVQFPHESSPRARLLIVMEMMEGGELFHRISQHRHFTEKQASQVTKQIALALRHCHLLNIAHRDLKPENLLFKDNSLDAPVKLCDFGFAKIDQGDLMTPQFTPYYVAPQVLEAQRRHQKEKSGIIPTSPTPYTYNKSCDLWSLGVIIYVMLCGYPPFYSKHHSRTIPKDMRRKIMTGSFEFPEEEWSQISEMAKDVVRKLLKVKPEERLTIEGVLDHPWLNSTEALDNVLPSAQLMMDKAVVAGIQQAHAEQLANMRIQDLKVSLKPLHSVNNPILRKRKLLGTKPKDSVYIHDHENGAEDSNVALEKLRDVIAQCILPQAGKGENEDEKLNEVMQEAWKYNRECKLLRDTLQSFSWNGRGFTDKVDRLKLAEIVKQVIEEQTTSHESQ
Method: 3 μM MAPKAP-K5 peptide substrate

[2] = tested on: TNFα release by human PBMCs; test: Cytokine release by LPS-stimulated human PBMCs (TNFα ELISA); assay type: cell-based; conditions: PBMC, LPS 1 μg/mL, 24 hr
Method: Human peripheral blood mononuclear cells (PBMCs) are isolated from “buffy coats” prepared from the blood of healthy volunteers, isolated essentially according to method of Bøyum (1984). In brief, buffy coat is diluted 1:1 with 1×PBS (Gibco) and 30 mL is carefully put on top of 20 mL Lymphoprep™ (Lucron Bioproducts) in 50 mL Falcon tubes. After centrifugation (35 min, 400 g, 18° C.) the mononuclear cells are collected from the white interphase and washed 3 times with 1×PBS by resuspending and centrifugation (10 min, 200 g). Isolated PBMCs are finally resuspended in RPMI 1640 (Cat. No. 21875, Gibco) that is supplemented with 10% heat-inactivated FBS (Hyclone).
For the assay PBMCs are seeded at 2.5E6 cells/mL in 160 μL in 96-well plates (Nunc). Serial dilution of the test compounds are made first in DMSO (Sigma) and then diluted 50-fold in M199 medium (Gibco) containing 1% heat-inactivated FBS. Compounds are further 1/10 diluted in the assay plates to obtain final DMSO concentration of 0.2%. Cells are preincubated with the compounds for 1 hr at 37° C., 5% CO2. Then, cells are stimulated with LPS (Escherichia coli serotype 026:B6, Cat. No. L2654, Sigma) that is added in a volume of 20 μL to a final concentration of 1 μg/mL and cells are further cultured for 24 hr. The plates are centrifuged and the supernatant is collected and stored at −80° C. until analysis of appropriate dilutions in ELISAs.
The following 384-well chemiluminescent ELISA protocol was developed to measure TNFα levels in the supernatant: White Lumitrac 600 384-well plates (Greiner) are coated with (40 μL/well) anti-TNFα capture antibody (Cat. No. 551220, BD Pharmingen) that is diluted to 1 μg/mL in 1×PBS (Gibco). After overnight incubation at 4° C., plates are washed with 1×PBS (80 g NaCl, 2 g KCl (Sigma), 11.5 g Na2HPO4.7H2O and 2 g KH2PO4 in 10 L milliQ; pH 7.4) and blocked with 100 μL/well buffer B (1×PBS containing 1% BSA (Sigma), 5% sucrose (Sigma) and 0.05% NaN3 (Sigma)). After 4 hr incubation at RT, blocking buffer is removed and plates are washed once with PBST (1×PBS with 0.05% Tween-20 (Sigma)). Then, 40 μL of sample is transferred to the ELISA plates and plates are incubated at 4° C. Next day, plates are washed 3 times (twice with PBST and once with PBS) and 35 μL/well biotinylated anti-TNFα antibody (Cat. No. 554511, BD Pharmingen) diluted first to a concentration of 250 ng/ml in buffer D (1×PBS with 1% BSA) is added. After 2 h of incubation at RT, plates are washed as described above and 35 μL/well of a 1/2000 dilution of streptavidin-HRP conjugate (Cat. No. SNN2004, Biosource) in buffer D is added. After 45 min, plates are washed as described above and incubated for 5 min with 50 μL/well BM Chemiluminescence ELISA Substrate POD (Roche). Readout is performed on the Luminoscan Ascent Luminometer (Labsystems) with an integration time of 100 msec delivering raw data (RLU: relative luminescence units). The following controls are included in the experiments, a maximal signal control, in which the cells are activated by LPS but only the 0.2% DMSO vehicle (and thus no compound) is added. This control indicates the maximal level of TNFα that can be achieved in the test. A minimal signal control is also included in these experiments. Here, cells are not triggered. This control returns the basal TNFα levels produced by the PBMCs. The percent inhibition (PIN) of the TNFα release, achieved by the compounds is then calculated based on the RLU data returned by the ELISA with following formula: 100−[((TNFα level compound X at concentration Y−minimal TNFα levels)/(maximal TNFα levels−minimal TNFα levels))×100]. Where compounds are tested at 8 concentrations (1/3 serial dilution), EC50-values can be calculated by curve fitting of the means of the PIN data achieved for a compound at each test concentration. […]

Row | IC50 [1] [nM] | SMILES | EC50 [2] [nM]
1 | 101 to 500 | CN1CCN(c2ccc(Nc3ncc(-c4cc(F)c(C(N)=O)c(F)c4)n4ccnc34)cc2)CC1 [Compound 140] | > 1000
2 | > 1000 | Cn1cnnc1-c1ccc(Nc2ncc(-c3ccc(C(N)=O)cc3)n3ccnc23)cc1 [Compound 141] | > 1000
3 | > 1000 | CC(C)N1CCN(c2ccc(Nc3ncc(-c4ccc(C(N)=O)cc4)n4ccnc34)cc2)CC1 [Compound 142] | > 1000
4 | > 1000 | CN1CCN(c2ccc(Nc3ncc(-c4ccc(C(N)=O)cc4)n4ccnc34)cc2)CC1 [Compound 143] | > 1000
5 | > 1000 | NC(=O)c1ccc(-c2cnc(Nc3ccc(N4CCCCC4)cc3)c3nccn23)cc1 [Compound 144] | 1 to 100
6 | > 1000 | CN1CCN(c2ccc(Nc3ncc(-c4cc(C(N)=O)cs4)n4ccnc34)cc2)CC1 [Compound 145, 5-{8-[4-(4-Methyl-piperazin-1-yl)-phenylamino]-imidazo[1,2-a]pyrazin-5-yl}-thiophene-3-carboxylic acid amide] | > 1000
7 | > 1000 | NC(=O)c1ccc(-c2cnc(Nc3ccc(OCCN4CCOCC4)cc3)c3nccn23)cc1F [Compound 146] | > 1000
8 | > 1000 | CN1CCC(Oc2ccc(Nc3ncc(-c4ccc(C(N)=O)c(F)c4)n4ccnc34)cc2)CC1 [Compound 149] | > 1000
9 | 501 to 1000 | c1cn2c(-c3cn[nH]c3)cnc(Nc3ccc(OCCN4CCOCC4)cc3)c2n1 [Compound 150, [4-(2-Morpholin-4-yl-ethoxy)-phenyl]-[5-(1H-pyrazol-4-yl)-imidazo[1,2-a]pyrazin-8-yl]-amine] | > 1000
10 | 1 to 100 | CN1CCN(c2ccc(Nc3ncc(-c4cc(C(N)=O)co4)n4ccnc34)cc2)CC1 [Compound 151] | > 1000
11 | > 1000 | NC(=O)c1ccc(-c2cnc(Nc3ccc(-c4cccnc4)cc3)c3nccn23)cc1 [Compound 153] | 1 to 100
12 | > 1000 | C[C@@H]1CN(c2ccc(Nc3ncc(-c4ccc(C(N)=O)cc4)n4ccnc34)cc2)C[C@H](C)N1C [Compound 155] | > 1000
13 | 501 to 1000 | NC(=O)c1ccc(-c2cnc(Nc3ccc(N4CCN(CCO)CC4)cc3)c3nccn23)cc1 [Compound 156] | > 1000
14 | > 1000 | NC(=O)c1cnc(-c2cnc(Nc3ccc(N4CCOCC4)cc3)c3nccn23)s1 [Compound 158, 2-[8-(4-Morpholin-4-yl-phenylamino)-imidazo[1,2-a]pyrazin-5-yl]-thiazole-5-carboxylic acid amide] | 101 to 500
15 | > 1000 | CN1CCC(COc2ccc(Nc3ncc(-c4ccc(C(N)=O)c(F)c4)n4ccnc34)cc2)CC1 [Compound 159, 2-Fluoro-4-{8-[4-(1-methyl-piperidin-4-ylmethoxy)-phenylamino]-imidazo[1,2-a]pyrazin-5-yl}-benzamide] | > 1000
16 | 101 to 500 | c1cn2c(-c3cn[nH]c3C3CC3)cnc(Nc3ccc(N4CCOCC4)cc3)c2n1 [Compound 160, [5-(5-Cyclopropyl-1H-pyrazol-4-yl)-imidazo[1,2-a]pyrazin-8-yl]-(4-morpholin-4-yl-phenyl)-amine] | > 1000

Row | IC50 [1] [nM] | SMILES | EC50 [2] [nM]
17 | > 1000 | c1cn2c(-c3c[nH]cn3)cnc(Nc3ccc(N4CCOCC4)cc3)c2n1 [Compound 163] | > 1000
18 | > 1000 | NC(=O)c1c(F)cc(-c2cnc(Nc3ccc(N4CCOCC4)cc3)c3nccn23)cc1F [Compound 165] | > 1000
19 | > 1000 | CN(C)Cc1cn(-c2ccc(Nc3ncc(-c4ccc(C(N)=O)cc4)n4ccnc34)cc2)nn1 [Compound 166, 4-{8-[4-(4-Dimethylaminomethyl-[1,2,3]triazol-1-yl)-phenylamino]-imidazo[1,2-a]pyrazin-5-yl}-benzamide] | > 1000
20 | > 1000 | NC(=O)c1ccc(-c2cnc(Nc3ccc(-n4ccnc4)cc3)c3nccn23)cc1 [Compound 167] | 1 to 100
21 | > 1000 | c1cn(-c2ccc(Nc3ncc(-c4cn[nH]c4)n4ccnc34)cc2)cn1 [Compound 168, (4-Imidazol-1-yl-phenyl)-[5-(1H-pyrazol-4-yl)-imidazo[1,2-a]pyrazin-8-yl]-amine] | > 1000
22 | > 1000 | Cn1nnc(-c2ccc(Nc3ncc(-c4cn[nH]c4)n4ccnc34)cc2)n1 [Compound 169, [4-(2-Methyl-2H-tetrazol-5-yl)-phenyl]-[5-(1H-pyrazol-4-yl)-imidazo[1,2-a]pyrazin-8-yl]-amine] | > 1000
23 | > 1000 | CN1CCN(c2ccc(Nc3ncc(-c4ccc(C(N)=O)cc4)n4ccnc34)cc2F)CC1 [Compound 171, 4-{8-[3-Fluoro-4-(4-methyl-piperazin-1-yl)-phenylamino]-imidazo[1,2-a]pyrazin-5-yl}-benzamide] | > 1000
24 | > 1000 | NC(=O)c1ncc(-c2cnc(Nc3ccc(N4CCOCC4)cc3)c3nccn23)s1 [Compound 173, 5-[8-(4-Morpholin-4-yl-phenylamino)-imidazo[1,2-a]pyrazin-5-yl]-thiazole-2-carboxylic acid amide] | > 1000
25 | 501 to 1000 | Cc1[nH]ncc1-c1cnc(Nc2ccc(N3CCOCC3)cc2)c2nccn12 [Compound 176] | > 1000
26 | 101 to 500 | C[C@@H]1CN(c2ccc(Nc3ncc(-c4cc(F)c(C(N)=O)c(F)c4)n4ccnc34)cc2)[C@@H](C)CN1C [Compound 181] | > 1000
27 | 101 to 500 | C[C@@H]1CN(c2ccc(Nc3ncc(-c4csc(C(N)=O)c4)n4ccnc34)cc2)[C@@H](C)CN1C [Compound 186] | > 1000
28 | 1 to 100 | C[C@@H]1CN(c2ccc(Nc3ncc(-c4cc(C(N)=O)co4)n4ccnc34)cc2)[C@@H](C)CN1C [Compound 187] | > 1000
29 | > 1000 | Cc1oc(-c2cnc(Nc3ccc(N4CCOCC4)cc3)c3nccn23)cc1C(N)=O [Compound 188] | > 1000
30 | 501 to 1000 | CC(C)N1CCN(c2ccc(Nc3ncc(-c4cc(F)c(C(N)=O)c(F)c4)n4ccnc34)cc2)CC1 [Compound 193] | > 1000
31 | 101 to 500 | O=C1NCc2cc(-c3cnc(Nc4cccnc4)c4nccn34)ccc21 [Compound 197] | > 1000
32 | 101 to 500 | O=C1NCc2cc(-c3cnc(Nc4ccc(N5CCOCC5)cc4)c4nccn34)sc21 [Compound 198, 2-[8-(4-Morpholin-4-yl-phenylamino)-imidazo[1,2-a]pyrazin-5-yl]-4,5-dihydro-thieno[2,3-c]pyrrol-6-one] | > 1000
